{"source": "patent US20190255144A1", "about": "“SPECIFIC OLIGOPEPTIDES AS ANTI-ANGIOGENIC DRUGS” (NEURONAX, priority 2014, published 2019)", "key": {"[1]": {"test_system": "chorioallantoic membrane (CAM) vascularization", "experiment": "Treatments on the chorioallantoic membrane (CAM), fluorescein angiography", "assay_type": "in vivo, chicken embryo", "conditions": "impregnated sponge on CAM at ED9; oligopeptide 250 μg/mL (9 hours), VEGF 10 ng/mL; listed as oligopeptide according to the invention", "source_text": "In fact, TSP-1 is known for inducing the apoptosis of endothelial cells. […] It is also a decisive process under certain physiological and pathological conditions (cancers in particular). This mechanism is controlled by numerous factors having either an inhibitor potential or an activator. So as to evaluate the main properties of these in vivo factors, the most common model is the CAM (chorioallantoic membrane) model from the chicken embryo (Ribatti et al., 2000). It offers the advantage of making it possible to test the pro- or anti-angiogenic factors during an active angiogenesis phase between the embryonic stages 4j and 10j. The major effects of the various molecules can therefore be evaluated in vivo. The model of the CAM can also be used in experimental tumor development. The grafting of human cancer cells onto the surface of the CAM is carried out in the 9-day embryonic stage. Three days after the grafting at ED12, the formation of a tumor is visible at the surface of the CAM. The latter can be treated topically during the 48 hours that follow this stage, and the tumors are sampled at ED14j. The fertilized eggs (Haas Poultry Farm, Strasbourg, France) are kept for 24 hours at 18° C. before the incubation is started up. […] The embryonic stages are determined from tables of Hamburger and Hamilton (H and H, 1951). […]"}, "[2]": {"experiment": "Toxicity on injection", "assay_type": "in vivo", "conditions": "injections of 20 mg/kg"}, "[3]": {"test_system": "HUVECs or HBMECs", "experiment": "Proliferation of endothelial cells", "assay_type": "cell-based", "conditions": "in vitro"}}, "note": "“Also recorded” adds a separate entry of the source.", "data": [{"substance": "—W—S-G-W—S—S—C—S—R—S—C-G- (WSGWSSCSRSCG; Oligopeptide derived from SCO-Spondin) [NX]", "values": [{"measurement": "Vascularization / microvascularization of the CAM (in words)", "setting": "[1]", "result": "inhibition of vascularization; also recorded: comparable to that of the Bevacizumab"}, {"measurement": "Toxicity", "setting": "[2]", "result": "no toxicity"}, {"measurement": "Proliferation of HUVECs or HBMECs", "setting": "[3]", "result": "does not modulate the proliferation"}]}]}
